This data set relates to human maximum recommended daily dose, FDA database. Nature of the data set: DSSTox (FDAMDD) FDA Maximum (Recommended) Daily Dose Database. Particulars: active compounds read low. The method, boiled down:
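MRDD values come from clinical trials with daily oral dosing, usually for 3–12 months, for the average adult, in mg/day converted to mg/kg-bw/day assuming 60 kg. Antineoplastic mg/m2 doses are divided by 37. Activity score maps log10(1/MRDD mmol) onto 1–100.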

The mark [1] stands for this setting: TherapeuticCategory: antibacterial.
Where [2] appears, read: TherapeuticCategory: diagnostic aid.
The mark [3] stands for this setting: TherapeuticCategory: antihistaminic.
[4] abbreviates: TherapeuticCategory: antipsychotic.
Setting [5] is: TherapeuticCategory: antineoplastic.
Where [6] appears, read: TherapeuticCategory: sedative, hypnotic.
Where [7] appears, read: TherapeuticCategory: anti inflammatory.
Where [8] appears, read: TherapeuticCategory: anticoagulant.

As to `C[N+]1(C)CCCC(OC(=O)C(O)(c2ccccc2)c2ccccc2)C1` (centres undefined), the maximum recommended daily dose (mmol/kg-bw/day) (TherapeuticCategory: anticholinergic) was 0.00792. With `Cc1cn([C@H]2C[C@H](O)[C@@H](CO)O2)c(=O)[nH]c1=O`, the maximum recommended daily dose (mmol/kg-bw/day) (TherapeuticCategory: none) is 0.413.

Consider `O=c1c(CO)c/c(=N/Nc2ccc(S(=O)(=O)O)c3ccccc23)c(=O)/c1=N/Nc1ccc(S(=O)(=O)O)c2ccccc12`, for which the maximum recommended daily dose (mmol/kg-bw/day) (TherapeuticCategory: food additive) was 0.0023. For the compound `CN[C@@H]1[C@H](O[C@H]2[C@H](O[C@H]3[C@H](O)[C@@H](O)[C@H](N=C(N)N)[C@@H](O)[C@@H]3N=C(N)N)O[C@@H](C)[C@]2(O)C=O)O[C@@H](CO)[C@H](O)[C@H]1O`, the maximum recommended daily dose (mmol/kg-bw/day) under setting [1] was 0.0344.

In the case of `CC/C(=C(/CC)c1ccc(O)cc1)c1ccc(O)cc1`, for the setting “TherapeuticCategory: estrogen”, the maximum recommended daily dose (mmol/kg-bw/day) is 0.0373. As for `Nc1ccc(C(=O)NCC(=O)O)cc1`, for the setting “TherapeuticCategory: anti inflammatory, antifungal”, the maximum recommended daily dose (mmol/kg-bw/day) is 0.0515. Turning to `NC(Cc1ccccc1)C(=O)O` (centres undefined), under setting [1], the maximum recommended daily dose (mmol/kg-bw/day) is 0.605. `CN1CCC(=C2c3ccccc3CC(=O)c3sccc32)CC1`: the maximum recommended daily dose (mmol/kg-bw/day) (TherapeuticCategory: antiasthmatic) was 0.000108.

On to `CCC(=O)c1ccc(O)cc1`, for which the maximum recommended daily dose (mmol/kg-bw/day) (TherapeuticCategory: pituitary gonadotrophic hormone inhibitor) was 0.333. `CN1C(CCl)Nc2cc(Cl)c(S(N)(=O)=O)cc2S1(=O)=O` (centres undefined): the maximum recommended daily dose (mmol/kg-bw/day) (TherapeuticCategory: diuretic, antihypertensive) is 0.000464.

As to `CC(Cc1ccc(O)cc1)NCC(O)c1cc(O)cc(O)c1` (centres undefined), the maximum recommended daily dose (mmol/kg-bw/day) (TherapeuticCategory: bronchodilator, tocolytic) is 8.8e-05. `CN1C(=O)CN=C(c2ccccc2)c2cc([N+](=O)[O-])ccc21`: where the note is “TherapeuticCategory: anticonvulsant, skeletal muscle relaxant”, the maximum recommended daily dose (mmol/kg-bw/day) is 0.000282. `N[C@@H]1[C@@H](O)[C@@H](O[C@@H]2[C@@H](O)[C@H](O[C@H]3O[C@H](CO)[C@@H](O)[C@H](O)[C@H]3N)[C@@H](N)C[C@H]2N)O[C@H](CO)[C@H]1O`: the maximum recommended daily dose (mmol/kg-bw/day) under setting [1] was 0.031. Take `CCC(Cc1c(I)cc(I)c(N)c1I)C(=O)O` (centres undefined): the maximum recommended daily dose (mmol/kg-bw/day) under setting [2] is 0.175. With `CCN(CC)CCOC(=O)c1ccc(N)cc1Cl`, the maximum recommended daily dose (mmol/kg-bw/day) (TherapeuticCategory: local anesthetic) was 0.0308. Consider `COc1ccc(CN(CCN(C)C)c2ccccn2)cc1`, for which the maximum recommended daily dose (mmol/kg-bw/day) under setting [3] is 0.00438. Regarding `COc1ccc2c3c1O[C@H]1[C@@H](O)C=C[C@H]4[C@@H](C2)N(C)CC[C@@]341`, the maximum recommended daily dose (mmol/kg-bw/day) (TherapeuticCategory: narcotic analgesic, antitussive) was 0.02. In the case of `CC(=O)N(CC(C)C(=O)O)c1c(I)cc(I)c(N)c1I` (centres undefined), the maximum recommended daily dose (mmol/kg-bw/day) under setting [2] is 0.122. Consider `CC(=O)OCCN1CCN(CCCN2c3ccccc3Sc3ccc(Cl)cc32)CC1`, for which, under setting [4], the maximum recommended daily dose (mmol/kg-bw/day) is 0.00336. For `CN(C)C(=O)Oc1ccc[n+](C)c1`, the maximum recommended daily dose (mmol/kg-bw/day) (TherapeuticCategory: cholinergic) is 0.0766. Turning to `O=NN(CCCl)C(=O)NCCCl`, under setting [5], the maximum recommended daily dose (mmol/kg-bw/day) was 0.000389. Turning to `CNC(=O)c1c(I)c(C(=O)NCC(=O)Nc2c(I)c(C(=O)O)c(I)c(C(=O)NCCO)c2I)c(I)c(N(C)C(C)=O)c1I`, under setting [2], the maximum recommended daily dose (mmol/kg-bw/day) is 0.0788. As to `CC(=O)O[C@H]1C(=O)[C@@]2(C)[C@H]([C@H](OC(=O)c3ccccc3)[C@]3(O)C[C@H](OC(=O)[C@H](O)[C@@H](NC(=O)c4ccccc4)c4ccccc4)C(C)=C1C3(C)C)[C@]1(OC(C)=O)CO[C@@H]1C[C@@H]2O`, under setting [5], the maximum recommended daily dose (mmol/kg-bw/day) was 0.00554. With `O=C(Cc1cccs1)N[C@@H]1C(=O)N2C(C(=O)[O-])=C(C[n+]3ccccc3)CS[C@H]12`, under setting [1], the maximum recommended daily dose (mmol/kg-bw/day) was 0.161. With `C[C@H](CN1CCOCC1)C(C(=O)N1CCCC1)(c1ccccc1)c1ccccc1`, the maximum recommended daily dose (mmol/kg-bw/day) (TherapeuticCategory: narcotic analgesic) was 0.000848.

For `Cc1nnc(NS(=O)(=O)c2ccc(N)cc2)s1`, the maximum recommended daily dose (mmol/kg-bw/day) under setting [1] is 0.247. On to `C=CCC1(CC(C)C)C(=O)NC(=O)NC1=O`, for which the maximum recommended daily dose (mmol/kg-bw/day) under setting [6] is 0.0223.

As for `CCS(=O)(=O)CCn1c([N+](=O)[O-])cnc1C`, the maximum recommended daily dose (mmol/kg-bw/day) (TherapeuticCategory: antiprotozoal, antiamebic) was 0.135. Take `CCC[C@@H]1O[C@@H]2C[C@H]3[C@@H]4CCC5=CC(=O)C=C[C@]5(C)[C@H]4[C@@H](O)C[C@]3(C)[C@]2(C(=O)CO)O1`: the maximum recommended daily dose (mmol/kg-bw/day) under setting [7] is 1.01e-05. As for `Cc1cc(/C=C/c2ccc3cc(N(C)C)ccc3[n+]2C)c(C)n1-c1ccccc1`, under “TherapeuticCategory: anthelmintic”, the maximum recommended daily dose (mmol/kg-bw/day) is 0.00434. For `COc1ccc(C2C(=O)c3ccccc3C2=O)cc1`, the maximum recommended daily dose (mmol/kg-bw/day) under setting [8] is 0.0198.

With `O=C(CCBr)N1CCN(C(=O)CCBr)CC1`, the maximum recommended daily dose (mmol/kg-bw/day) under setting [5] is 0.00843. Still for that read-out and setting: then `COc1cc([C@@H]2c3cc4c(cc3C(O[C@@H]3O[C@@H]5CO[C@@H](C)O[C@H]5[C@H](O)[C@H]3O)C3COC(=O)[C@@H]32)OCO4)cc(OC)c1O` (some centres undefined), with 0.00459. In the case of `N[C@@H](C(=O)N[C@@H]1C(=O)N2C(C(=O)O)=C(Cl)CC[C@H]12)c1ccccc1`, the maximum recommended daily dose (mmol/kg-bw/day) under setting [1] is 0.0181. As for `CCN(CC)CCOC(=O)C1(c2ccccc2)CCCC1`, the maximum recommended daily dose (mmol/kg-bw/day) (TherapeuticCategory: antitussive) is 0.0173. With `CC(=O)CC(c1ccccc1)c1c(O)c2ccccc2oc1=O` (centres undefined), the maximum recommended daily dose (mmol/kg-bw/day) under setting [8] is 0.000542. On to `Cc1ccnc(NS(=O)(=O)c2ccc(N)cc2)n1`, for which, under setting [1], the maximum recommended daily dose (mmol/kg-bw/day) is 0.252. Turning to `O=C(O)c1cc(O)c2c(c1)[C@H]([C@H]1c3cc(C(=O)O)cc(O)c3C(=O)c3c(O[C@@H]4O[C@H](CO)[C@@H](O)[C@H](O)[C@H]4O)cccc31)c1cccc(O[C@@H]3O[C@H](CO)[C@@H](O)[C@H](O)[C@H]3O)c1C2=O`, the maximum recommended daily dose (mmol/kg-bw/day) (TherapeuticCategory: cathartic) was 0.0194. With `CCC(C)C1(CC)C(=O)NC(=O)NC1=O` (centres undefined), under setting [6], the maximum recommended daily dose (mmol/kg-bw/day) was 0.00942. For the compound `CN(C)CCOc1ccccc1Cc1ccccc1`, the maximum recommended daily dose (mmol/kg-bw/day) under setting [3] is 0.013. For the compound `O=c1[nH]c(=S)[nH]cc1I`, the maximum recommended daily dose (mmol/kg-bw/day) (TherapeuticCategory: thyroid inhibitor) was 0.0197.

`CC(C)NCC(O)COc1ccc(CC(N)=O)cc1` (centres undefined): the maximum recommended daily dose (mmol/kg-bw/day) (TherapeuticCategory: antihypertensive, antianginal, antiarrhythmic) was 0.0125. As to `C=C[C@H]1CN2CC[C@H]1C[C@@H]2[C@@H](O)c1ccnc2ccc(OC)cc12`, the maximum recommended daily dose (mmol/kg-bw/day) (TherapeuticCategory: anthiarrythmic) is 0.0308. As to `O=C(OCCN1CCCCC1)C(O)(c1ccccc1)c1ccccc1`, under “TherapeuticCategory: anticholinergic, antispasmodic”, the maximum recommended daily dose (mmol/kg-bw/day) is 0.00392. `NC[C@H]1O[C@H](O[C@H]2[C@H](O)[C@@H](O[C@H]3O[C@H](CO)[C@@H](O)[C@H](N)[C@H]3O)[C@H](N)C[C@@H]2N)[C@H](N)C[C@@H]1O`: the maximum recommended daily dose (mmol/kg-bw/day) under setting [1] is 0.0193.

Regarding `CN[C@@H]1[C@@H](O)[C@@H](O[C@@H]2[C@@H](O)[C@H](O[C@H]3O[C@H](CN)CC[C@H]3N)[C@@H](N)C[C@H]2N)OC[C@]1(C)O`, under setting [1], the maximum recommended daily dose (mmol/kg-bw/day) is 0.00667. For the compound `CN1C(=O)OC(C)(C)C1=O`, under “TherapeuticCategory: anticonvulsant”, the maximum recommended daily dose (mmol/kg-bw/day) is 0.279. On to `Cc1ccc(/C(=C/CN2CCCC2)c2ccccn2)cc1`, for which, under setting [3], the maximum recommended daily dose (mmol/kg-bw/day) is 0.0006. For `CC(=O)[C@]1(O)Cc2c(O)c3c(c(O)c2[C@@H](O[C@H]2C[C@H](N)[C@H](O)[C@H](C)O2)C1)C(=O)c1ccccc1C3=O`, the maximum recommended daily dose (mmol/kg-bw/day) (TherapeuticCategory: antibacterial, antineoplastic) is 0.00543. Consider `O=NN(CCCl)C(=O)NC1CCCCC1`, for which, under setting [5], the maximum recommended daily dose (mmol/kg-bw/day) is 0.015. As for `CCC[C@H](N[C@@H](C)C(=O)N1[C@H](C(=O)O)C[C@@H]2CCCC[C@@H]21)C(=O)OCC`, the maximum recommended daily dose (mmol/kg-bw/day) (TherapeuticCategory: antihypertensive, ACE inhibitor) was 0.000361.

Take `COC(=O)C1=C(C)NC(C)=C(C(=O)OC(C)C)C1c1cccc2nonc12` (centres undefined): the maximum recommended daily dose (mmol/kg-bw/day) (TherapeuticCategory: antihypertensive, antianginal) is 0.00045. For the compound `OCCOCCN1CCN(C2=Nc3ccccc3Sc3ccccc32)CC1`, the maximum recommended daily dose (mmol/kg-bw/day) under setting [4] was 0.0347. On to `CC(C(=O)O)c1ccc(C(=O)c2ccccc2)s1` (centres undefined), for which, under setting [7], the maximum recommended daily dose (mmol/kg-bw/day) was 0.0384.

Source of the values: PubChem BioAssay AID1195 (EPA DSSTox, 2008).
